Patent US20260021103A1, “IKZF2 AND CK1-ALPHA DEGRADING COMPOUNDS AND USES THEREOF” (President and Fellows of Harvard College, priority 2022, published 2026)

How the values were obtained:
[1] = system: endometrioid ovarian cancer cell line A2780; assay: 5-day MTT assay in A2780 cells; assay type: cell-based; conditions: A2780, 5-day MTT assay
Protocol: (§1) Viability Assay: 10,000 cells (e.g., MOLM-13 cells, MLL-AF9 leukemic cells or normal BM cells) were plated onto flat-bottom 96-well plates in media with increasing concentration of compound up to […]. […] For measuring viability, Cell-Titer Glo kit (Promega) or MTT kit was used following manufacturer's instructions. For Cell-Titer Glo assay, cells were cooled to room temperature for 20-30 min, 100 μL of the cultured cells were transferred to opaque-white bottom 96-well plates and mixed with 100 μL of Cell-Titer Glo reagent. The mixture was incubated for 15 min at room temperature and read using a Synergy H1 Hybrid reader (BioTek) for luminescence. Data was normalized as percentage viability and graphed by non-linear regression curves in Graph Pad PRISM 7.0.

DLBCL cell line OCI-LY3 = assay: 5-day MTT assay in OCI-LY3 cells; assay type: cell-based; conditions: OCI-LY3, 5-day MTT assay
Protocol: as §1

IKZF1 = target: T1, IKZF1 (Homo sapiens, UniProt Q13422+Q96SW2); assay: Flow cytometry for measuring degradation, HEK293T GFP-POI reporter cells (IKZF1); assay type: cell-based; conditions: for IKZF1% degradation at 100 nM / IKZF1% degradation at 1 μM: 24 h, HEK293T GFP reporter; for Dmax: HEK-293T, Table 3
T1 construct: expressed in transfected cells; host or cells: HEK293T (lentiviral transduction, puromycin selection, FACS sorting)

IKZF2 = target: T2, IKZF2 (Homo sapiens, UniProt Q96SW2+Q9UKS7); assay: Flow cytometry for measuring degradation, HEK293T GFP-POI reporter cells (IKZF2); assay type: cell-based; conditions: for IKZF2% degradation at 100 nM / IKZF2% degradation at 1 μM: 24 h, HEK293T GFP reporter; for Dmax: HEK-293T; for Dmax / DC50: Table 3
T2 construct: expressed in transfected cells; host or cells: HEK293T (lentiviral transduction, puromycin selection, FACS sorting)

CK1α = target: T3, CK1α (Homo sapiens, UniProt P48729+Q96SW2); assay: Flow cytometry for measuring degradation, HEK293T GFP-POI reporter cells (CK1α); assay type: cell-based; conditions: for CK1α % degradation at 100 nM / CK1α % degradation at 1 μM: 24 h, HEK293T GFP reporter; for Dmax: CK1, read-out: Dmax CK1a (%); for Dmax / DC50: Table 3; for DC50: read-out: DC50 CK1a
T3 construct: expressed in transfected cells; host or cells: HEK293T (lentiviral transduction, puromycin selection, FACS sorting)

CK1α and/or IKZF2 = assay: Panel of reporter cell lines (HEK293T cells expressing protein tagged with eGFP), substrate scope; assay type: cell-based; conditions: 100 nM or 1 μM
GSPT1 = GSPT1 (Homo sapiens, UniProt P15170+Q96SW2); assay: Flow cytometry for measuring degradation, HEK293T GFP-POI reporter cells (GSPT1); assay type: cell-based; design: expressed in transfected cells; host or cells: HEK293T; conditions: for GSPT1% degradation at 100 nM / GSPT1% degradation at 1 μM: 24 h, HEK293T GFP reporter; for Dmax: HEK-293T, Table 3
[2] = In vitro solubility in DMSO; assay type: physicochemical; conditions: DMSO, organic solvent or mixture

T1 sequence (Q13422 whole entry): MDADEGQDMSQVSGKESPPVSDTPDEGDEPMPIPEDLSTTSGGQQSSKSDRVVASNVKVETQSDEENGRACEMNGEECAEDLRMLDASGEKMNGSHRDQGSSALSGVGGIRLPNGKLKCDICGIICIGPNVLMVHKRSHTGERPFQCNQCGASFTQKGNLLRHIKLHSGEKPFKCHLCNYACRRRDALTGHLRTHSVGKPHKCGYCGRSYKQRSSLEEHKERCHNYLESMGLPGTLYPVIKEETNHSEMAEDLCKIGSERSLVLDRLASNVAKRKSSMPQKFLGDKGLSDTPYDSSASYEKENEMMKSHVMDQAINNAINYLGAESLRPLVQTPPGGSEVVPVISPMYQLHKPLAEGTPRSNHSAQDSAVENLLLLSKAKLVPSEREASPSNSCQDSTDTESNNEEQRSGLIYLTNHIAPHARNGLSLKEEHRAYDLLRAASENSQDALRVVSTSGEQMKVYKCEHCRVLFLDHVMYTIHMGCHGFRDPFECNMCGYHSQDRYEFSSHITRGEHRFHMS
T1 sequence (Q96SW2 whole entry): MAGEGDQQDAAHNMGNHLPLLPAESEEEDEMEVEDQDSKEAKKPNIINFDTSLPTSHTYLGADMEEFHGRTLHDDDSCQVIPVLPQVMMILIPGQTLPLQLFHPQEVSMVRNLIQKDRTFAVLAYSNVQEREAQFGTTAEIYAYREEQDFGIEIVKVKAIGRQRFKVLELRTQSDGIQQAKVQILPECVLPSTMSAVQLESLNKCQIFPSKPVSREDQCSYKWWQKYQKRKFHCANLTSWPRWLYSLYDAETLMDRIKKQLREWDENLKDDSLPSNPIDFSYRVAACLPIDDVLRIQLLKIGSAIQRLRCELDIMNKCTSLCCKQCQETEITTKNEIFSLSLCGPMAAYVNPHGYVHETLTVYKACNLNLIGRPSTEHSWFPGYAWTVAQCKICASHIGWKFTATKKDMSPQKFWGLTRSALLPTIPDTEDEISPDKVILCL
T1 sequence (Q16531 whole entry partner): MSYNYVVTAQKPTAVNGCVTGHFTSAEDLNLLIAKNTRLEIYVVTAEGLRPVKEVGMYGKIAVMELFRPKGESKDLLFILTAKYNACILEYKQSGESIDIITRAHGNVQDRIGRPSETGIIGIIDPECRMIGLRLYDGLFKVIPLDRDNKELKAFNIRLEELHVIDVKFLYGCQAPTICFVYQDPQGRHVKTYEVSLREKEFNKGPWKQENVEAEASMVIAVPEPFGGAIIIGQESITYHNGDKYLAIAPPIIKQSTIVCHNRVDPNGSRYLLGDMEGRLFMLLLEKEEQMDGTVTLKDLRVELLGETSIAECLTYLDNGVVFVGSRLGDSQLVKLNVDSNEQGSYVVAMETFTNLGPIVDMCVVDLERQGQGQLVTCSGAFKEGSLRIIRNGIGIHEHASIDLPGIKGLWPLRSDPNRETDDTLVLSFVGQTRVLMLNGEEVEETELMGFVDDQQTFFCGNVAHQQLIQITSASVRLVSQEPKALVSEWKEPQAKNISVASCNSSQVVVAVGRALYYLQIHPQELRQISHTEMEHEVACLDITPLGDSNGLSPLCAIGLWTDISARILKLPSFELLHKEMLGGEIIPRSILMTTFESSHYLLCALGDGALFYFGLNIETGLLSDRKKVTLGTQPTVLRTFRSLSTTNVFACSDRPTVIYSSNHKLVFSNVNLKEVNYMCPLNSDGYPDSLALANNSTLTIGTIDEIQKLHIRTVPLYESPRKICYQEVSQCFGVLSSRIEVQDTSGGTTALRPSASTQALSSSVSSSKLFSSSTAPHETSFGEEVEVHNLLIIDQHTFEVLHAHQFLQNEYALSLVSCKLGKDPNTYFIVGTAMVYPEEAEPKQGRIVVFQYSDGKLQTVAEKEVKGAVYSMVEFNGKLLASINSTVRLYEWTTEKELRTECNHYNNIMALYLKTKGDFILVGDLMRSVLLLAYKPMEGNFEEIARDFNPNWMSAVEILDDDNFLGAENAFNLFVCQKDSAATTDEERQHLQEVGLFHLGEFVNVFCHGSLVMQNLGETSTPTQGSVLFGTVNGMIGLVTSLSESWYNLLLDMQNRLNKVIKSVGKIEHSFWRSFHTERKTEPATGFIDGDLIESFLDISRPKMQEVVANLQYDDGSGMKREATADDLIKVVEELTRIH
Chain of GSPT1 (P15170 whole entry): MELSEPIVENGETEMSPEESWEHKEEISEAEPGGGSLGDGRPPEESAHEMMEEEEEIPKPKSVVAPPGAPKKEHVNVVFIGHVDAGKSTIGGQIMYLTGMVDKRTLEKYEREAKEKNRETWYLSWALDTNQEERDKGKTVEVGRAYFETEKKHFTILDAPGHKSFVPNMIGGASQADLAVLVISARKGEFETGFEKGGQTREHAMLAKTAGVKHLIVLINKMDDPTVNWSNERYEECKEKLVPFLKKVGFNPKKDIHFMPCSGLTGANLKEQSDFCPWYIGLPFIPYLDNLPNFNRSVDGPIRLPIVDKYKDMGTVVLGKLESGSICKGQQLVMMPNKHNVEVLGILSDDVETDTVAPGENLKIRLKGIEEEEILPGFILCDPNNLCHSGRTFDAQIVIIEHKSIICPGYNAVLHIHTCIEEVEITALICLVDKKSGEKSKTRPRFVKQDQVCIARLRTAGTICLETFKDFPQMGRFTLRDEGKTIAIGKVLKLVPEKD
Chain of GSPT1 (Q96SW2 whole entry): as the sequence (Q96SW2 whole entry) above
Chain of GSPT1 (Q16531 whole entry partner): as the sequence (Q16531 whole entry partner) above
T2 sequence (Q9UKS7 whole entry): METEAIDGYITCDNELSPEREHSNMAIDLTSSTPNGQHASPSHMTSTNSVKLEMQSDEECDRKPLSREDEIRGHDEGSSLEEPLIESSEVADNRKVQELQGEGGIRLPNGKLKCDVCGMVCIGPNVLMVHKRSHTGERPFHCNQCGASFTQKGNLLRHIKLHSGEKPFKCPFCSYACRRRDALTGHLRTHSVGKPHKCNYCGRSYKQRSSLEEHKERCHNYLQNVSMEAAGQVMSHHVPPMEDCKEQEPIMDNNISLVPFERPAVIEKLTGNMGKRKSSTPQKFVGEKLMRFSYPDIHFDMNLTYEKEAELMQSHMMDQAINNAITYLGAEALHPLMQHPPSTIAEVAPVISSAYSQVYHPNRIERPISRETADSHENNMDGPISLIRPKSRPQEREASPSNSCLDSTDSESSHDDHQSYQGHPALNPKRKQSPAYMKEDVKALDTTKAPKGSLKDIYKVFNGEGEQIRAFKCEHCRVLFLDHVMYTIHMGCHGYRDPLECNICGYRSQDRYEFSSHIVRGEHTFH
T2 sequence (Q96SW2 whole entry): as the sequence (Q96SW2 whole entry) above
T2 sequence (Q16531 whole entry partner): as the sequence (Q16531 whole entry partner) above
T3 sequence (P48729 whole entry): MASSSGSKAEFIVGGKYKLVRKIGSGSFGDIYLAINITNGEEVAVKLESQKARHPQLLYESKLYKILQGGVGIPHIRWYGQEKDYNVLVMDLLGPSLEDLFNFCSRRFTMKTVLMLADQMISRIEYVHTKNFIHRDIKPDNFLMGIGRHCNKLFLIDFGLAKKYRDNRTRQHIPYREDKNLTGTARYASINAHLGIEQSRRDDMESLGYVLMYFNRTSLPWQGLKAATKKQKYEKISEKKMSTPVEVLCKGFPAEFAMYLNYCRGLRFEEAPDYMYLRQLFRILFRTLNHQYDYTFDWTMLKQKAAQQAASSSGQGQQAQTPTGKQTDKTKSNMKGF
T3 sequence (Q96SW2 whole entry): as the sequence (Q96SW2 whole entry) above
T3 sequence (Q16531 whole entry partner): as the sequence (Q16531 whole entry partner) above

SMILES: COc1cc(C(=O)O)ccc1NC(=O)[C@@H]1N[C@@H](CC(C)(C)C)[C@](C#N)(c2ccc(Cl)cc2F)[C@H]1c1cccc(Cl)c1F [idasanutlin, reference compound]
- sensitivity of A2780 cells (in words) [1]: no demonstrable sensitivity
- sensitivity of OCI-LY3 cells (in words) (DLBCL cell line OCI-LY3): very limited sensitivity

SMILES: O=C1CCC(N2Cc3cc(NC(=O)c4cc5ccccc5o4)ccc3C2=O)C(=O)N1 (centres unmarked) [DEG-59, N-(2-(2,6-dioxopiperidin-3-yl)-1-oxoisoindolin-5-yl)benzofuran-2-carboxamide]
- IKZF1% degradation at 100 nM (IKZF1): 13.4 ± 0.6%
- IKZF1% degradation at 1 μM (IKZF1): 26.5 ± 1.2%
- IKZF2% degradation at 100 nM (IKZF2): 79.7 ± 0.1%
- IKZF2% degradation at 1 μM (IKZF2): 92 ± 0.1%
- CK1α % degradation at 100 nM (CK1α): 61.7 ± 2.4%
- CK1α % degradation at 1 μM (CK1α): 63.3 ± 3.9%
- degradation activity for CK1α and/or IKZF2, while sparing IKZF1 and/or GSPT1 (in words) (CK1α and/or IKZF2): good degradation activity
- GSPT1% degradation at 100 nM (GSPT1): 2 ± 3.6%
- GSPT1% degradation at 1 μM (GSPT1): −1 ± 3.4%

SMILES: COCOc1ccc2cc(C(=O)Nc3ccc4c(c3)CN(C3CCC(=O)NC3=O)C4=O)ccc2c1 (centres unmarked) [DEG-92, N-(2-(2,6-dioxopiperidin-3-yl)-1-oxoisoindolin-5-yl)-6-(methoxymethoxy)-2-naphthamide]
- IKZF1% degradation at 100 nM (IKZF1): 6.7%
- IKZF1% degradation at 1 μM (IKZF1): 8.3%
- Dmax (IKZF1): 14.5%
- IKZF2% degradation at 100 nM (IKZF2): 87.6%
- IKZF2% degradation at 1 μM (IKZF2): 94.5%
- Dmax (IKZF2): 95.9%
- DC50 (IKZF2): 7.9 nM
- CK1α % degradation at 100 nM (CK1α): 76.2%
- CK1α % degradation at 1 μM (CK1α): 80.1%
- Dmax (CK1α): 80.2%
- DC50 (CK1α): 2.9 nM
- solubility [2]: > 100 mM
- GSPT1% degradation at 100 nM (GSPT1): 5.3%
- GSPT1% degradation at 1 μM (GSPT1): 5.0%
- Dmax (GSPT1): 12.8%

SMILES: CC(=O)N1CCC[C@H]1C(=O)Nc1ccc2c(c1)CN(C1CCC(=O)NC1=O)C2=O (stereo partly drawn) [DEG-96, (2S)-1-acetyl-N-(2-(2,6-dioxopiperidin-3-yl)-1-oxoisoindolin-5-yl)pyrrolidine-2-carboxamide]
- IKZF1% degradation at 100 nM (IKZF1): 3.6%
- IKZF1% degradation at 1 μM (IKZF1): 5.0%
- Dmax (IKZF1): 8.3%
- IKZF2% degradation at 100 nM (IKZF2): 21.4%
- IKZF2% degradation at 1 μM (IKZF2): 57.0%
- Dmax (IKZF2): 79.5%
- DC50 (IKZF2): 340 nM
- CK1α % degradation at 100 nM (CK1α): 9.2%
- CK1α % degradation at 1 μM (CK1α): 26.3%
- Dmax (CK1α): 40.3%
- DC50 (CK1α): 503 nM
- solubility [2]: > 100 mM
- GSPT1% degradation at 100 nM (GSPT1): 8.6%
- GSPT1% degradation at 1 μM (GSPT1): 10.1%
- Dmax (GSPT1): 14.2%

SMILES: CN1C(=O)CCc2cc(C(=O)Nc3ccc4c(c3)CN(C3CCC(=O)NC3=O)C4=O)ccc21 (centres unmarked) [DEG-97, N-(2-(2,6-dioxopiperidin-3-yl)-1-oxoisoindolin-5-yl)-1-methyl-2-oxo-1,2,3,4-tetrahydroquinoline-6-carboxamide]
- IKZF1% degradation at 100 nM (IKZF1): 2.4%
- IKZF1% degradation at 1 μM (IKZF1): 4.1%
- Dmax (IKZF1): 13.1%
- IKZF2% degradation at 100 nM (IKZF2): 52.6%
- IKZF2% degradation at 1 μM (IKZF2): 87.1%
- Dmax (IKZF2): 95.9%
- DC50 (IKZF2): 83.1 nM
- CK1α % degradation at 100 nM (CK1α): 60.1%
- CK1α % degradation at 1 μM (CK1α): 74.1%
- Dmax (CK1α): 78%
- DC50 (CK1α): 32 nM
- solubility [2]: > 100 mM
- GSPT1% degradation at 100 nM (GSPT1): 1.6%
- GSPT1% degradation at 1 μM (GSPT1): −3.4%
- Dmax (GSPT1): 5.6%

SMILES: O=C1CCC(N2Cc3cc(NC(=O)c4cccc(Oc5ccccc5)c4)ccc3C2=O)C(=O)N1 (centres unmarked) [DEG-55, N-(2-(2,6-dioxopiperidin-3-yl)-1-oxoisindolin-5-yl)-3-phenoxybenzamide]
- IKZF1% degradation at 100 nM (IKZF1): 62.1 ± 0.2%
- IKZF1% degradation at 1 μM (IKZF1): 86.8 ± 0.4%
- IKZF2% degradation at 100 nM (IKZF2): 73.9 ± 0.4%
- IKZF2% degradation at 1 μM (IKZF2): 91.1 ± 0.1%
- CK1α % degradation at 100 nM (CK1α): 57.6 ± 1.7%
- CK1α % degradation at 1 μM (CK1α): 67.4 ± 1.4%
- degradation activity for CK1α and/or IKZF2, while sparing IKZF1 and/or GSPT1 (in words) (CK1α and/or IKZF2): good degradation activity
- GSPT1% degradation at 100 nM (GSPT1): 8.8 ± 0.8%
- GSPT1% degradation at 1 μM (GSPT1): 14 ± 1.8%

SMILES: O=C1CCC(N2Cc3cc(NC(=O)Cc4cccc5ccccc45)ccc3C2=O)C(=O)N1 (centres unmarked) [DEG-67, N-(2-(2,6-dioxopiperidin-3-yl)-1-oxoisoindolin-5-yl)-2-(naphthalen-1-yl)acetamide]
- IKZF1% degradation at 100 nM (IKZF1): 97.2 ± 0.1%
- IKZF1% degradation at 1 μM (IKZF1): 98.1 ± 0.1%
- IKZF2% degradation at 100 nM (IKZF2): 92.2 ± 0.1%
- IKZF2% degradation at 1 μM (IKZF2): 94.6 ± 0%
- CK1α % degradation at 100 nM (CK1α): 64.4 ± 0.5%
- CK1α % degradation at 1 μM (CK1α): 62.8 ± 0.5%
- degradation activity for CK1α and/or IKZF2, while sparing IKZF1 and/or GSPT1 (in words) (CK1α and/or IKZF2): good degradation activity
- GSPT1% degradation at 100 nM (GSPT1): 25.3 ± 0.5%
- GSPT1% degradation at 1 μM (GSPT1): 30.9 ± 1%

SMILES: O=C1CCC(N2Cc3cc(NC(=O)C4=Cc5ccccc5OC4)ccc3C2=O)C(=O)N1 (centres unmarked) [DEG-52, N-(2-(2,6-dioxopiperidin-3-yl)-1-oxoisoindolin-5-yl)-2H-chromene-3-carboxamide]
- IKZF1% degradation at 100 nM (IKZF1): 15.2 ± 0.2%
- IKZF1% degradation at 1 μM (IKZF1): 29.2 ± 0.5%
- IKZF2% degradation at 100 nM (IKZF2): 83.9 ± 0.4%
- IKZF2% degradation at 1 μM (IKZF2): 93.8 ± 0.1%
- CK1α % degradation at 100 nM (CK1α): 68.4 ± 0.2%
- CK1α % degradation at 1 μM (CK1α): 72.8 ± 0.1%
- degradation activity for CK1α and/or IKZF2, while sparing IKZF1 and/or GSPT1 (in words) (CK1α and/or IKZF2): good degradation activity
- GSPT1% degradation at 100 nM (GSPT1): 10.5 ± 1.7%
- GSPT1% degradation at 1 μM (GSPT1): 12.2 ± 1.9%

SMILES: O=C1CCC(N2Cc3cc(NC(=O)c4ccc(Oc5ccccc5)cc4)ccc3C2=O)C(=O)N1 (centres unmarked) [DEG-61, N-(2-(2,6-dioxopiperidin-3-yl)-1-oxoisoindolin-5-yl)-4-phenoxybenzamide]
- IKZF1% degradation at 100 nM (IKZF1): 5.2 ± 1%
- IKZF1% degradation at 1 μM (IKZF1): 9.6 ± 0.5%
- IKZF2% degradation at 100 nM (IKZF2): 78.4 ± 0.8%
- IKZF2% degradation at 1 μM (IKZF2): 91.4 ± 0.1%
- CK1α % degradation at 100 nM (CK1α): 60.9 ± 0.7%
- CK1α % degradation at 1 μM (CK1α): 65.8 ± 1.2%
- degradation activity for CK1α and/or IKZF2, while sparing IKZF1 and/or GSPT1 (in words) (CK1α and/or IKZF2): good degradation activity
- GSPT1% degradation at 100 nM (GSPT1): 10.2 ± 2.8%
- GSPT1% degradation at 1 μM (GSPT1): 16.9 ± 2.3%

SMILES: O=C(/C=C/c1ccccc1)Nc1ccc2c(c1)CN(C1CCC(=O)NC1=O)C2=O (centres unmarked) [DEG-56, N-(2-(2,6-dioxopiperidin-3-yl)-1-oxoisoindolin-5-yl)cinnamamide]
- IKZF1% degradation at 100 nM (IKZF1): 13.1 ± 0.8%
- IKZF1% degradation at 1 μM (IKZF1): 29.4 ± 0.3%
- IKZF2% degradation at 100 nM (IKZF2): 70.8 ± 0.3%
- IKZF2% degradation at 1 μM (IKZF2): 89.6 ± 0.1%
- CK1α % degradation at 100 nM (CK1α): 60.2 ± 2.3%
- CK1α % degradation at 1 μM (CK1α): 67 ± 1.1%
- degradation activity for CK1α and/or IKZF2, while sparing IKZF1 and/or GSPT1 (in words) (CK1α and/or IKZF2): good degradation activity
- GSPT1% degradation at 100 nM (GSPT1): 7.6 ± 1.5%
- GSPT1% degradation at 1 μM (GSPT1): 11.1 ± 1.3%

SMILES: N#Cc1ccc2cc(C(=O)Nc3ccc4c(c3)CN(C3CCC(=O)NC3=O)C4=O)ccc2c1 (centres unmarked) [DEG-91, 6-cyano-N-(2-(2,6-dioxopiperidin-3-yl)-1-oxoisoindolin-5-yl)-2-naphthamide]
- IKZF1% degradation at 100 nM (IKZF1): 8.5%
- IKZF1% degradation at 1 μM (IKZF1): 14.4%
- Dmax (IKZF1): 20.6%
- IKZF2% degradation at 100 nM (IKZF2): 89.4%
- IKZF2% degradation at 1 μM (IKZF2): 95.3%
- Dmax (IKZF2): 96.6%
- DC50 (IKZF2): 7 nM
- CK1α % degradation at 100 nM (CK1α): 74.6%
- CK1α % degradation at 1 μM (CK1α): 80.3%
- Dmax (CK1α): 81.2%
- DC50 (CK1α): 2.6 nM
- solubility [2]: > 100 mM
- GSPT1% degradation at 100 nM (GSPT1): 9.7%
- GSPT1% degradation at 1 μM (GSPT1): 11.5%
- Dmax (GSPT1): 14.8%
